{
  "source": "patent US12427210B2",
  "about": "“Compounds comprising a fibroblast activation protein ligand and use thereof” (priority 2019, dated 2025)",
  "key": {"Renin": {"molecular_target": "T1, Renin (Homo sapiens, UniProt P00797)", "T1 sequence (P00797 67-406)": "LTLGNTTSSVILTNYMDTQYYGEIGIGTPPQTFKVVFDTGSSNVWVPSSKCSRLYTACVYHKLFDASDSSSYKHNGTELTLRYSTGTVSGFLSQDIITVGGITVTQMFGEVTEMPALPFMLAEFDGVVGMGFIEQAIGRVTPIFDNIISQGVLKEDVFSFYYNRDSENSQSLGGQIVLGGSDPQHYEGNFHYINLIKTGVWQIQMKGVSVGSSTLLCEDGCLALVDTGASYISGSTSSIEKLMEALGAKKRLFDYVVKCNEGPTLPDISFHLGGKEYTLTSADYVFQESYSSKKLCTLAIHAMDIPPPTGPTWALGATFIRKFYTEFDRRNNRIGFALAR", "experiment": "biochemical", "settings": "read-out: Percentage inhibition (%)"}, "Caspase-7": {"molecular_target": "T2, Caspase-7 (Homo sapiens, UniProt P55210)", "T2 sequence (P55210 24-198 limits assumed)": "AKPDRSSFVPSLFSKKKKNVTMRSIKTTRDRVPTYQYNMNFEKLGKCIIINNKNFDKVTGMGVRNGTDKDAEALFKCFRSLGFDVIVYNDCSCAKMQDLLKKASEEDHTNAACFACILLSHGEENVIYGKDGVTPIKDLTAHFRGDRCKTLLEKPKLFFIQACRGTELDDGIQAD", "T2 sequence (P55210 207-303 limits assumed)": "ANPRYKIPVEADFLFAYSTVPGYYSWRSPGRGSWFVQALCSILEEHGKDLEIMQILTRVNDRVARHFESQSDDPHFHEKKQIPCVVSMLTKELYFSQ", "experiment": "biochemical", "settings": "read-out: Percentage inhibition (%)"}, "COX2(h)": {"molecular_target": "COX2(h) (Homo sapiens, UniProt P35354)", "experiment": "biochemical", "settings": "read-out: % Inhibition of Specific Binding"}, "COX1(h)": {"molecular_target": "COX1(h) (Homo sapiens, UniProt P23219)", "sequence (P23219 24-599)": "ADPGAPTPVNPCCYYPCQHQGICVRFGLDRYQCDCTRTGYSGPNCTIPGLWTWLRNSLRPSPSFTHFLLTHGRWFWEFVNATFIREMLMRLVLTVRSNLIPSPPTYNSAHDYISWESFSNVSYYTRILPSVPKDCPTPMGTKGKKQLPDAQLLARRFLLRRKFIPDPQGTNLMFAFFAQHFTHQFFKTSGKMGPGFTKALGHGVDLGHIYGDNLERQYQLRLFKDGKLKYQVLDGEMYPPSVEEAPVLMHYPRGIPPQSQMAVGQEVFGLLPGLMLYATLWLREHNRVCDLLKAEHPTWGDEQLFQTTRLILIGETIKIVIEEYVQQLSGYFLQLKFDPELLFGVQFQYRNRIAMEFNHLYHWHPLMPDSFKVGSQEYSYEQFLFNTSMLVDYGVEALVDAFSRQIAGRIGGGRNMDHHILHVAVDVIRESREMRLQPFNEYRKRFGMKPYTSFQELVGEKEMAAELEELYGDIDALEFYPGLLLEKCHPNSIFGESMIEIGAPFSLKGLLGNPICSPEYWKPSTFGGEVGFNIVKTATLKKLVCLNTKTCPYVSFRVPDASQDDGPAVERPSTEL", "experiment": "biochemical", "settings": "read-out: % Inhibition of Specific Binding"}, "[1]": {"system": "serine protease NS3 (a.a. 3-181) from Hepatitis C virus genotype 1b"}, "D1 (h)": {"molecular_target": "D1 (h) (Homo sapiens, UniProt P21728)", "experiment": "biochemical", "settings": "read-out: % Inhibition of Specific Binding"}, "kappa (h) (KOP)": {"molecular_target": "kappa (h) (KOP) (Homo sapiens, UniProt P41145)", "sequence (P41145 whole entry)": "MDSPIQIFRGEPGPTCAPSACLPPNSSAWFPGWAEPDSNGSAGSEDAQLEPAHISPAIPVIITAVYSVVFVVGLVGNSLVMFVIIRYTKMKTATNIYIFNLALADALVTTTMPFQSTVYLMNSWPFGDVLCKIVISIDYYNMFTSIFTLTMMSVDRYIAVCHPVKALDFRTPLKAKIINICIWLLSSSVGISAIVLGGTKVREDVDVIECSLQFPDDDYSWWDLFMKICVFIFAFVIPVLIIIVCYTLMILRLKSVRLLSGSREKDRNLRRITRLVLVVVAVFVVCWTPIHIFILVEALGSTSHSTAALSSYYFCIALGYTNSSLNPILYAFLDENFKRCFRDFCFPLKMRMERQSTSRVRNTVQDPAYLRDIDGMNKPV", "experiment": "biochemical", "settings": "read-out: % Inhibition of Specific Binding"}, "Caspase-8": {"molecular_target": "Caspase-8 (Homo sapiens, UniProt Q14790)", "sequence (Q14790 217-374 limits assumed, species assumed)": "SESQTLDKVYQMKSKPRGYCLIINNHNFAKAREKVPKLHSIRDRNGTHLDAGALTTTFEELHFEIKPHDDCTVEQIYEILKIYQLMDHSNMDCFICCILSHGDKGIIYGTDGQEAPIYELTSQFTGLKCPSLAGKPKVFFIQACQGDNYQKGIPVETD", "sequence (Q14790 385-479 limits assumed, species assumed)": "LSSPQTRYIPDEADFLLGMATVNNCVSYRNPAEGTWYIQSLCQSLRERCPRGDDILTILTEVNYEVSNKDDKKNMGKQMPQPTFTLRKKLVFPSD", "experiment": "biochemical", "settings": "read-out: Percentage inhibition (%)"}, "delta (DOP) (h)": {"molecular_target": "delta (DOP) (h) (Homo sapiens, UniProt P41143)", "sequence (P41143 whole entry)": "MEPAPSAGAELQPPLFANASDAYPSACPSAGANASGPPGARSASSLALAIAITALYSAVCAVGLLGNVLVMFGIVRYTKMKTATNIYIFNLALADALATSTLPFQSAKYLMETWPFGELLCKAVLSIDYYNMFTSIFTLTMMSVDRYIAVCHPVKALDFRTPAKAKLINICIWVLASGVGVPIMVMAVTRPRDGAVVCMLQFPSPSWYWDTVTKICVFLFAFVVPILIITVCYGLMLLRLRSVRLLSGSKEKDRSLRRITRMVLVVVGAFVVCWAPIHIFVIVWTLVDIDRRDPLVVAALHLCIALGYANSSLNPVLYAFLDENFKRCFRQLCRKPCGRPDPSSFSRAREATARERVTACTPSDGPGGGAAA", "experiment": "biochemical", "settings": "read-out: % Inhibition of Specific Binding"}, "V1a (h)": {"molecular_target": "V1a (h) (Homo sapiens, UniProt P37288)", "sequence (P37288 whole entry)": "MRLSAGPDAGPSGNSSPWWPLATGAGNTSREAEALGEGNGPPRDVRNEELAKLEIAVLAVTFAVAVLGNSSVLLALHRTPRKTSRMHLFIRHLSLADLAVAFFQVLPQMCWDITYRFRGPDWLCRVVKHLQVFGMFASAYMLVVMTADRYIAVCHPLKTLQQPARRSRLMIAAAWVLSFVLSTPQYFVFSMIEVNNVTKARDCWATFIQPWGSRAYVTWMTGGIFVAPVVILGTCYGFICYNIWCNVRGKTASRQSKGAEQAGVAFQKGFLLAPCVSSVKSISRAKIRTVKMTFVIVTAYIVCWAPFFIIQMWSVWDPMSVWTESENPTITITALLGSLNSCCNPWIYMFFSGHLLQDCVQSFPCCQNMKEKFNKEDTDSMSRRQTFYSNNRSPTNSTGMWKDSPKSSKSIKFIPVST", "experiment": "biochemical", "settings": "read-out: % Inhibition of Specific Binding"}, "Cathepsin B": {"molecular_target": "Cathepsin B (Homo sapiens, UniProt P07858)", "experiment": "biochemical", "settings": "read-out: Percentage inhibition (%)"}, "[2]": {"system": "serine protease NS3 (a.a. 3-181) from Hepatitis C virus genotype 1b (mutant R155K)"}, "H1 (h)": {"molecular_target": "H1 (h) (Homo sapiens, UniProt P35367)", "experiment": "biochemical", "settings": "read-out: % Inhibition of Specific Binding"}, "GR (h)": {"molecular_target": "GR (h) (Homo sapiens, UniProt P04150)", "sequence (P04150 whole entry)": "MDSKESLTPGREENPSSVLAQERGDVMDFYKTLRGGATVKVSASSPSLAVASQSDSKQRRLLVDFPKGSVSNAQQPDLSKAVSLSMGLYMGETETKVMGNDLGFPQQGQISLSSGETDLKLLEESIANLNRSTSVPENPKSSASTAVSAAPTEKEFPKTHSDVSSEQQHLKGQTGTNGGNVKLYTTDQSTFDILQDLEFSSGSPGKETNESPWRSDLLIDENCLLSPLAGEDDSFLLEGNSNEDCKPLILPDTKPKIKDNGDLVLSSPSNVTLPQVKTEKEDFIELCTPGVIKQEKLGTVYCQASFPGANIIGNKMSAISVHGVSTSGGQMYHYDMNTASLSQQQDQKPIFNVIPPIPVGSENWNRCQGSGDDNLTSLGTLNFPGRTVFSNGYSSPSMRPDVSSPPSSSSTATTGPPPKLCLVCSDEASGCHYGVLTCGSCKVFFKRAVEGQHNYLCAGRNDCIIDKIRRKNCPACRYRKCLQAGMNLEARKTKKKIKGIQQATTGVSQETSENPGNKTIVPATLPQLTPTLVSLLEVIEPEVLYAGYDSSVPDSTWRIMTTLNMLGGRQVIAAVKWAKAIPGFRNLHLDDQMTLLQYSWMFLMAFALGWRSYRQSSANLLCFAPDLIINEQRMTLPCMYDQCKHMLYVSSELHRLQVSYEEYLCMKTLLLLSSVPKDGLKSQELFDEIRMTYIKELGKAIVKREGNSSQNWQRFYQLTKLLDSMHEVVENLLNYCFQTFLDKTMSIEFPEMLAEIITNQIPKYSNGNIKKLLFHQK", "experiment": "biochemical", "settings": "read-out: % Inhibition of Specific Binding"}, "Ataxin3": {"molecular_target": "Ataxin3 (Homo sapiens, UniProt P54252)", "sequence (P54252 whole entry, species assumed)": "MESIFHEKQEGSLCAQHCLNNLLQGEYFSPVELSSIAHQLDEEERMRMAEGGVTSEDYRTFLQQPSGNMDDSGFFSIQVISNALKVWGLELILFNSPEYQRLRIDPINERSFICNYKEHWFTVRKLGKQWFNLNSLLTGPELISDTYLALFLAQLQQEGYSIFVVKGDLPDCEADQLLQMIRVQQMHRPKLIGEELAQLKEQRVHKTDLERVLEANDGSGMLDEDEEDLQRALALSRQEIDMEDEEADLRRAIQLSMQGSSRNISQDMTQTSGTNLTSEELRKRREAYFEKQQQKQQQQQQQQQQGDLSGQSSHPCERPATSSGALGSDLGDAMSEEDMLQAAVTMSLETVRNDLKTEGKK", "experiment": "biochemical", "settings": "read-out: Percentage inhibition (%)"}, "Cathepsin L": {"molecular_target": "Cathepsin L (Homo sapiens, UniProt P07711)", "sequence (P07711 114-333, species assumed)": "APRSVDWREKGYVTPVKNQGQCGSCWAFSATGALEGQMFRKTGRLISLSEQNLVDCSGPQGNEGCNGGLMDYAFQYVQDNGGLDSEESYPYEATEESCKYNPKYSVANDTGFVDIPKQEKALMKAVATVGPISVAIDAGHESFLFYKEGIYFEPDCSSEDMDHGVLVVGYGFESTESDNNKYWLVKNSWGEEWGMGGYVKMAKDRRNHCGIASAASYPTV", "experiment": "biochemical", "settings": "read-out: Percentage inhibition (%)"}, "H2 (h)": {"molecular_target": "H2 (h) (Homo sapiens, UniProt P25021)", "experiment": "biochemical", "settings": "read-out: % Inhibition of Specific Binding"}, "DPP9": {"molecular_target": "DPP9 (Homo sapiens, UniProt Q86TI2)", "sequence (Q86TI2 whole entry, species assumed)": "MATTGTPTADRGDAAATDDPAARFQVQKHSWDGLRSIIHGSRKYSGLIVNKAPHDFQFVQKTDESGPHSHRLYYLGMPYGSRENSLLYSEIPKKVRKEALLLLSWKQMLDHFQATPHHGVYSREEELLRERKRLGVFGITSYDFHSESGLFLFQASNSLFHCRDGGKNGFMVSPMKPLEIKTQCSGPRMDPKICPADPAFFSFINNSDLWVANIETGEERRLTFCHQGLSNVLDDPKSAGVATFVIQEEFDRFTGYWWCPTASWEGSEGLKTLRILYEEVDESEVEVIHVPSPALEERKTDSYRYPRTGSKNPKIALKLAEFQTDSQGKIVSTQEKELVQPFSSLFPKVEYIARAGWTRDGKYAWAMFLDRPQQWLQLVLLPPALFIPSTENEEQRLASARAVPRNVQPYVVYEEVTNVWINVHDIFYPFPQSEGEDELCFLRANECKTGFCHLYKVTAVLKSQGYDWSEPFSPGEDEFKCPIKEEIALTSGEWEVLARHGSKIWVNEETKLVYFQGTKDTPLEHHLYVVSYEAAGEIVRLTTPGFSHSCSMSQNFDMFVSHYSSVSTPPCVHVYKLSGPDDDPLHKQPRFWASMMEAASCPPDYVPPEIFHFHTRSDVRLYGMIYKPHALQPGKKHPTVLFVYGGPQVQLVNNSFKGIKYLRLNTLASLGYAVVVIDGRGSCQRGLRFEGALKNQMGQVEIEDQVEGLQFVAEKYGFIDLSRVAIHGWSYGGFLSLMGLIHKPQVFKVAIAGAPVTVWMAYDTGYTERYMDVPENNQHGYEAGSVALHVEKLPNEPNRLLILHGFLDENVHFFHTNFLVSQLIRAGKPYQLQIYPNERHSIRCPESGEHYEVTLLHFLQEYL", "experiment": "biochemical", "settings": "read-out: Percentage inhibition (%)"}, "PDE4D2 (h)": {"molecular_target": "PDE4D2 (h) (Homo sapiens, UniProt Q08499)", "sequence (Q08499 303-809)": "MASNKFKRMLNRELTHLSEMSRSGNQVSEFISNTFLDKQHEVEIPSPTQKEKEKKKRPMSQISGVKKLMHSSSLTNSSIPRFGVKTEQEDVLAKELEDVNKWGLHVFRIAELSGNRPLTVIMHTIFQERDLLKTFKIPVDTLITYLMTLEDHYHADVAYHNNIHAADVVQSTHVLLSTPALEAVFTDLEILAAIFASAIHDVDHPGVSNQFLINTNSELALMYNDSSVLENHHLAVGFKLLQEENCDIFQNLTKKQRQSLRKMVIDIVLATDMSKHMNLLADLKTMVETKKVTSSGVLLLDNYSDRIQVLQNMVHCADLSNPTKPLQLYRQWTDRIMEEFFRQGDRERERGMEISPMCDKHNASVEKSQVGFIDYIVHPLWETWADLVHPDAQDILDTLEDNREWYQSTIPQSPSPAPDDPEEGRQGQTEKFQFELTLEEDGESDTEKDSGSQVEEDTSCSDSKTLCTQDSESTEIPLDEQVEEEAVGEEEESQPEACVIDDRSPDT", "experiment": "biochemical", "settings": "read-out: % Inhibition of Specific Binding"}, "MAO-A": {"molecular_target": "MAO-A (Rattus norvegicus, UniProt P21396)", "experiment": "biochemical", "settings": "read-out: % Inhibition of Specific Binding"}, "Lck kinase (h)": {"molecular_target": "Lck kinase (h) (Homo sapiens, UniProt P06239)", "experiment": "biochemical", "settings": "read-out: % Inhibition of Specific Binding"}},
  "note": "Read-outs that look alike come from different tables or passages of the source. Numbered stars: 1 amine (or outer) side, 2 acyl side, 3 side chain; on linkers, the order of the positions; unused ones are H or OH. Bridge positions count the residues as written; N and C are the ends. Peptide text beside a SMILES is read from it. * marks the point of attachment. X1 = O=C(O)CN1CCN(CC(=O)O)CCN(CC(=O)N2CCN(Cc3cc(C[*:1])cc(C[*:2])c3)CC2)CCN(CC(=O)O)CC1; Hexanoyl = CCCCCC(=O)*",
  "data": [
    {"smiles": "CCCCCC(=O)N[C@H]1CSCc2cc(cc(CN3CCN(C(=O)CN4CCN(CC(=O)O)CCN(CC(=O)O)CCN(CC(=O)O)CC4)CC3)c2)CSC[C@@H](C(=O)N[C@@H](CC(=O)O)C(N)=O)NC(=O)[C@H](Cc2ccccc2)NC(=O)[C@H](CCC(N)=O)NC(=O)[C@H]([C@@H](C)O)NC(=O)[C@@H]2CCCN2C(=O)[C@@H]2CCCN2C1=O", "note": "[Compound 3BP-3407, Hex-[Cys(tMeBn(DOTA-PP))-Pro-Pro-Thr-Gln-Phe-Cys]-Asp-NH2] (Hexanoyl-CPPTQFCD-NH2; linker 1-7 via X1)", "values": [
      {"measurement": "inhibition at 1 µM", "setting": "Renin", "result": -1, "unit": "%"},
      {"measurement": "inhibition at 10 µM", "setting": "Renin", "result": 3, "unit": "%"},
      {"measurement": "inhibition at 1 µM", "setting": "Caspase-7", "result": -3, "unit": "%"},
      {"measurement": "inhibition at 10 µM", "setting": "Caspase-7", "result": -3, "unit": "%"},
      {"measurement": "inhibition at 10 µM", "setting": "COX2(h)", "result": -14, "unit": "%"},
      {"measurement": "inhibition at 10 µM", "setting": "COX1(h)", "result": 10, "unit": "%"},
      {"measurement": "Percentage inhibition (%)", "setting": "[1]; 1 μM", "result": 1, "unit": "%"},
      {"measurement": "Percentage inhibition (%)", "setting": "[1]; 10 μM", "result": 5, "unit": "%"},
      {"measurement": "inhibition at 10 µM", "setting": "D1 (h)", "result": 0, "unit": "%"},
      {"measurement": "inhibition at 10 µM", "setting": "kappa (h) (KOP)", "result": 7, "unit": "%"},
      {"measurement": "inhibition at 1 µM", "setting": "Caspase-8", "result": 0, "unit": "%"},
      {"measurement": "inhibition at 10 µM", "setting": "Caspase-8", "result": 0, "unit": "%"},
      {"measurement": "inhibition at 10 µM", "setting": "delta (DOP) (h)", "result": 0, "unit": "%"},
      {"measurement": "inhibition at 10 µM", "setting": "V1a (h)", "result": 16, "unit": "%"},
      {"measurement": "inhibition at 1 µM", "setting": "Cathepsin B", "result": 26, "unit": "%"},
      {"measurement": "inhibition at 10 µM", "setting": "Cathepsin B", "result": 36, "unit": "%"},
      {"measurement": "Percentage inhibition (%)", "setting": "[2]; 1 μM", "result": "−2", "unit": "%"},
      {"measurement": "Percentage inhibition (%)", "setting": "[2]; 10 μM", "result": 5, "unit": "%"},
      {"measurement": "inhibition at 10 µM", "setting": "H1 (h)", "result": 11, "unit": "%"},
      {"measurement": "inhibition at 10 µM", "setting": "GR (h)", "result": -2, "unit": "%"},
      {"measurement": "inhibition at 1 µM", "setting": "Ataxin3", "result": 1, "unit": "%"},
      {"measurement": "inhibition at 10 µM", "setting": "Ataxin3", "result": 10, "unit": "%"},
      {"measurement": "inhibition at 1 µM", "setting": "Cathepsin L", "result": 3, "unit": "%"},
      {"measurement": "inhibition at 10 µM", "setting": "Cathepsin L", "result": 6, "unit": "%"},
      {"measurement": "inhibition at 10 µM", "setting": "H2 (h)", "result": -5, "unit": "%"},
      {"measurement": "inhibition at 1 µM", "setting": "DPP9", "result": -1, "unit": "%"},
      {"measurement": "inhibition at 10 µM", "setting": "DPP9", "result": 0, "unit": "%"},
      {"measurement": "inhibition at 10 µM", "setting": "PDE4D2 (h)", "result": -5, "unit": "%"},
      {"measurement": "inhibition at 10 µM", "setting": "MAO-A", "result": -5, "unit": "%"},
      {"measurement": "inhibition at 10 µM", "setting": "Lck kinase (h)", "result": 10, "unit": "%"}
    ]},
    {"smiles": "CCCCCC(=O)N[C@H]1CSCc2cc(CSCCNC(=O)CN3CCN(CC(=O)O)CCN(CC(=O)O)CCN(CC(=O)O)CC3)cc(c2)CSC[C@@H](C(=O)O)NC(=O)[C@H](Cc2ccccc2)NC(=O)[C@H](CCC(N)=O)NC(=O)[C@H]([C@@H](C)O)NC(=O)[C@@H]2CCCN2C(=O)[C@@H]2CCCN2C1=O", "note": "[Compound 3BP-3554, Hex-[Cys(tMeBn(DOTA-AET))-Pro-Pro-Thr-Gln-Phe-Cys]-OH]", "values": [
      {"measurement": "inhibition at 1 µM", "setting": "Renin", "result": 0, "unit": "%"},
      {"measurement": "inhibition at 10 µM", "setting": "Renin", "result": -1, "unit": "%"},
      {"measurement": "inhibition at 1 µM", "setting": "Caspase-7", "result": -1, "unit": "%"},
      {"measurement": "inhibition at 10 µM", "setting": "Caspase-7", "result": -7, "unit": "%"},
      {"measurement": "inhibition at 10 µM", "setting": "COX2(h)", "result": -22, "unit": "%"},
      {"measurement": "inhibition at 10 µM", "setting": "COX1(h)", "result": 8, "unit": "%"},
      {"measurement": "Percentage inhibition (%)", "setting": "[1]; 1 μM", "result": "−5", "unit": "%"},
      {"measurement": "Percentage inhibition (%)", "setting": "[1]; 10 μM", "result": "−9", "unit": "%"},
      {"measurement": "inhibition at 10 µM", "setting": "D1 (h)", "result": 7, "unit": "%"},
      {"measurement": "inhibition at 10 µM", "setting": "kappa (h) (KOP)", "result": 10, "unit": "%"},
      {"measurement": "inhibition at 1 µM", "setting": "Caspase-8", "result": 0, "unit": "%"},
      {"measurement": "inhibition at 10 µM", "setting": "Caspase-8", "result": -3, "unit": "%"},
      {"measurement": "inhibition at 10 µM", "setting": "delta (DOP) (h)", "result": 1, "unit": "%"},
      {"measurement": "inhibition at 10 µM", "setting": "V1a (h)", "result": 1, "unit": "%"},
      {"measurement": "inhibition at 1 µM", "setting": "Cathepsin B", "result": 1, "unit": "%"},
      {"measurement": "inhibition at 10 µM", "setting": "Cathepsin B", "result": 2, "unit": "%"},
      {"measurement": "Percentage inhibition (%)", "setting": "[2]; 1 μM", "result": "−1", "unit": "%"},
      {"measurement": "Percentage inhibition (%)", "setting": "[2]; 10 μM", "result": 0, "unit": "%"},
      {"measurement": "inhibition at 10 µM", "setting": "H1 (h)", "result": 4, "unit": "%"},
      {"measurement": "inhibition at 10 µM", "setting": "GR (h)", "result": 0, "unit": "%"},
      {"measurement": "inhibition at 1 µM", "setting": "Ataxin3", "result": 2, "unit": "%"},
      {"measurement": "inhibition at 10 µM", "setting": "Ataxin3", "result": -1, "unit": "%"},
      {"measurement": "inhibition at 1 µM", "setting": "Cathepsin L", "result": 0, "unit": "%"},
      {"measurement": "inhibition at 10 µM", "setting": "Cathepsin L", "result": -6, "unit": "%"},
      {"measurement": "inhibition at 10 µM", "setting": "H2 (h)", "result": -16, "unit": "%"},
      {"measurement": "inhibition at 1 µM", "setting": "DPP9", "result": -1, "unit": "%"},
      {"measurement": "inhibition at 10 µM", "setting": "DPP9", "result": -5, "unit": "%"},
      {"measurement": "inhibition at 10 µM", "setting": "PDE4D2 (h)", "result": -4, "unit": "%"},
      {"measurement": "inhibition at 10 µM", "setting": "MAO-A", "result": -25, "unit": "%"},
      {"measurement": "inhibition at 10 µM", "setting": "Lck kinase (h)", "result": -4, "unit": "%"}
    ]}
  ]
}
